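Where inhibition never reached the appropriate level, the endpoint shown equals the highest concentration tested. Otherwise, values were interpolated linearly from a five-concentration, 48-hour dose response in 96-well plates. GI50 marks 50% less growth. TGI: concentration producing complete growth inhibition.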
Tests used:
Test in all cases: inhibition of tumour cell growth, NCI panel, 48 h
KM12 colon = test system: KM12 colon
NCI-H226 lung = test system: NCI-H226 lung
IGROV1 ovarian = test system: IGROV1 ovarian
SF-295 CNS = test system: SF-295 CNS
U251 CNS = test system: U251 CNS
MOLT-4 leukemia = test system: MOLT-4 leukemia
OVCAR-5 ovarian = test system: OVCAR-5 ovarian
OVCAR-3 ovarian = test system: OVCAR-3 ovarian
UACC-62 melanoma = test system: UACC-62 melanoma
HOP-62 NSCLC = test system: HOP-62 NSCLC

Row | SMILES | TGI (KM12 colon) | TGI (NCI-H226 lung) | TGI (IGROV1 ovarian) | TGI (SF-295 CNS) | TGI (U251 CNS) | TGI (MOLT-4 leukemia) | TGI (OVCAR-5 ovarian) | TGI (OVCAR-3 ovarian) | TGI (UACC-62 melanoma) | TGI (HOP-62 NSCLC) | GI50 (KM12 colon) | GI50 (NCI-H226 lung) | GI50 (IGROV1 ovarian) | GI50 (SF-295 CNS) | GI50 (U251 CNS) | GI50 (MOLT-4 leukemia) | GI50 (OVCAR-5 ovarian) | GI50 (OVCAR-3 ovarian) | GI50 (UACC-62 melanoma) | GI50 (HOP-62 NSCLC)
1 | CN(C(=O)/C=C/c1ccccc1)C1C2CN3CCC(O2)C13 (centres undefined) | > 100 µM | > 100 µM | > 100 µM | > 100 µM | > 100 µM | > 100 µM | > 100 µM | > 100 µM | > 100 µM | > 100 µM | – | – | – | – | – | – | – | – | – | –
2 | O=C(/C=C/c1ccccc1)Oc1cccc2cccnc12 | 32.1 µM | > 66.7 µM | 32.4 µM | > 100 µM | 30.8 µM | > 51.1 µM | 80.6 µM | 24.6 µM | 27.1 µM | > 100 µM | – | – | – | – | – | – | – | – | – | –
3 | Nc1nc2ccc(-c3nc4ccc5[nH]ncc5c4c4c3CCC4)cc2s1 | 9.01 µM | 10.1 µM | 8.66 µM | 7.95 µM | 12.7 µM | 10.7 µM | 11.9 µM | 10.8 µM | 0.63 µM | 13.6 µM | 0.205 µM | 1.1 µM | 0.288 µM | 0.234 µM | 0.241 µM | 0.294 µM | 2.64 µM | 0.187 µM | 0.149 µM | 0.415 µM
4 | COC(=O)C1=CO[C@@H](OC2CC(CO)C(O)C(O)C2O)[C@@H]2[C@@H](C)[C@@H](OC(=O)/C=C/c3ccccc3)[C@@H](O)[C@H]12 (some centres undefined) (tested in a mixture with another compound) | > 100 µM | > 100 µM | > 100 µM | > 100 µM | > 100 µM | > 100 µM | > 100 µM | > 100 µM | > 100 µM | > 100 µM | – | – | – | – | – | – | – | – | – | –
5 | CCOC(=O)NC(=O)c1cn(CCN2CCN(C(=O)NCCCCCCNC(=O)N3CCN(CCn4cc(C(=O)NC(=O)OCC)c(=O)[nH]c4=O)CC3)CC2)c(=O)[nH]c1=O | > 100 µM | – | > 100 µM | > 100 µM | > 100 µM | – | > 100 µM | > 100 µM | > 100 µM | > 100 µM | – | – | – | – | – | – | – | – | – | –
6 | O=C1/C(=C/c2ccc([N+](=O)[O-])cc2)CN(C(=O)CCN2CCC(=NO)CC2)C/C1=C\c1ccc([N+](=O)[O-])cc1 | 1.18 µM | 5.41 µM | 2.75 µM | 5.39 µM | 2.03 µM | > 20 µM | 3.97 µM | 2.31 µM | 2.49 µM | 6.97 µM | 0.448 µM | 2.03 µM | 0.817 µM | 2.09 µM | 0.509 µM | 0.409 µM | 1.57 µM | 0.801 µM | 0.866 µM | 1.91 µM
7 | O=C(O)CCNS(=O)(=O)c1ccc(NC(=O)c2ccccc2)cc1 | > 100 µM | – | > 100 µM | > 100 µM | > 100 µM | > 100 µM | > 100 µM | > 100 µM | > 100 µM | – | – | – | – | – | – | – | – | – | – | –
8 | O=C(NCC1CC1)c1ccc(-c2cccc(C(=O)NC3CC3)c2)cc1 | > 25 µM | > 25 µM | > 25 µM | > 25 µM | > 25 µM | > 25 µM | > 25 µM | > 25 µM | > 25 µM | > 25 µM | > 25 µM | > 25 µM | > 25 µM | > 25 µM | > 25 µM | > 25 µM | > 25 µM | > 25 µM | > 25 µM | > 25 µM
9 | N#C[Se]Cc1cc(-c2ccccc2)n(-c2ccc(S(N)(=O)=O)cc2)n1 | 3.22 µM | 0.648 µM | 1.08 µM | 2.48 µM | 1.78 µM | 4.36 µM | 3.97 µM | 2.98 µM | 3.75 µM | – | 0.881 µM | 0.249 µM | 0.322 µM | 0.444 µM | 0.544 µM | 0.433 µM | 1.86 µM | 1.18 µM | 1.66 µM | –
10 | Nc1ncn([C@@H]2S[C@H](CO)[C@@H](O)[C@@H]2F)c(=O)n1 | > 100 µM | > 100 µM | > 100 µM | > 100 µM | > 100 µM | > 100 µM | > 100 µM | > 100 µM | > 100 µM | > 100 µM | 21.4 µM | 9.99 µM | 3.43 µM | 17.7 µM | 13.9 µM | 0.172 µM | 2.64 µM | > 74 µM | 5.01 µM | 0.951 µM
11 | c1cc[c]([Sn][c]2ccccc2)cc1 | 19.2 µM | 54.8 µM | > 100 µM | 69.7 µM | 42 µM | 60.3 µM | > 57.5 µM | 35 µM | 47 µM | > 100 µM | 13.6 µM | 21.8 µM | 38.9 µM | 27.8 µM | 19.4 µM | 19.2 µM | 15 µM | 17.8 µM | 21 µM | 53.1 µM
12 | C[C@@H](NC(C#N)c1ccco1)c1ccccc1 (some centres undefined) | > 100 µM | > 100 µM | > 100 µM | > 100 µM | > 100 µM | > 100 µM | > 100 µM | > 100 µM | > 100 µM | > 100 µM | – | – | – | – | – | – | – | – | – | –
13 | CC[O-].CC[O-].O=C([CH-]C(=O)c1ccccc1)CCCCCCCCC(=O)[CH-]C(=O)c1ccccc1.[Ti+4] | 3.25 µM | – | > 100 µM | > 100 µM | > 100 µM | > 100 µM | > 100 µM | > 100 µM | > 100 µM | > 100 µM | 0.032 µM | – | > 100 µM | 1.52 µM | > 100 µM | 53.9 µM | > 100 µM | 0.756 µM | > 100 µM | > 100 µM
14 | COC(=O)c1sc(C(=O)OC)c2c1CS(=O)C2 | > 100 µM | > 100 µM | > 100 µM | > 100 µM | > 100 µM | > 100 µM | > 100 µM | > 100 µM | > 100 µM | – | – | – | – | – | – | – | – | – | – | –
15 | O=C1CC(CC(=O)C2CCCCC2=O)C(=O)N1 (centres undefined) | > 100 µM | > 100 µM | > 100 µM | > 100 µM | > 100 µM | – | > 100 µM | > 100 µM | > 100 µM | > 100 µM | – | – | – | – | – | – | – | – | – | –
16 | CCSCCCSCCSCC | > 100 µM | – | > 100 µM | > 100 µM | > 100 µM | 84.5 µM | > 100 µM | > 100 µM | > 100 µM | > 100 µM | – | – | – | – | – | – | – | – | – | –
